Where two headings read alike, the source gives them in different places.

One assay deals with Plk1 (Homo sapiens (Human), UniProt P53350). The experiment in a line: PLK1 inhibition assay (radioactive-phosphate incorporation). Type of assay: biochemical. Particulars: Ki(app), read-out: PLK1 - 33P.ENZ - CB 10 Ki. The gist of the method: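 Radioactive-phosphate incorporation with 15 nM Plk1 and 9 µM Sam68 substrate, 20 µM [γ-33P]ATP, in 25 mM HEPES pH 7.5, 10 mM MgCl2, 25 mM NaCl, 2 mM DTT, 1.5% DMSO, room temperature, 45 min. Stopped with TCA/cold ATP, filtered, scintillation counted. Ki(app) from non-linear regression of background-corrected initial rates.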

A further assay concerns HepG2 WFS1 KO. The assay can be described thus: In vitro cell viability (CellTiter-Glo), HepG2 WFS1 KO. Type of assay: cell-based. Particulars: for IC50: 96 hours. The source says: A double cleavage strategy was employed to remove large fragments from the WFS1 locus. Suitable target sites in WFS1 exon 8 were first selected using CRISPR design software to rank suitable target sites and computationally predict off-target sites for each intended target. Six top guide RNA sequences are identified and screened for activity using the Surveyor Mutation Detection Kit (Integrated DNA Technologies). Then, the best 2 guide RNAs were cloned into GeneArt OFP CRISPR nuclease vectors (Thermofisher, Cat #A21174) separately and co-transfected into HepG2 cells using nucleofection (4D Nucleofector X, Lonza). Cells were sorted by FACS 48 hrs later to enrich for the OFP positive cell population. The OFP positive cell population were plated into 96-well plates at 0.5-5 cells/well to isolate clonal cell lines. After allowing cells to expand for 2-3 weeks, plates were inspected for presence of colonies. When colonies became more than 70% confluent, they were dissociated with trypsin and were further expanded. Cell clones with homozygous double cleavage of WFS1 exon 8 were detected with PCR and confirmed with DNA sequencing.
HEK293 cells containing empty pCLPCx vector (HEK293 empty), HEK293 cells stably over-expression WFS1 (HEK293 WFS1), HepG2, and HepG2 cells where WFS1 was depleted via CRISPR/Cas9 (HepG2 WFS1 KO) cells were plated into 96-well black plates (Corning, product #3904) in 100 microliters of complete DMEM cell culture media [DMEM (Life Technologies, product #11960-051) media supplemented with 10% FBS (Hyclone, catalog #SH30071.03), antimycotic/antibiotic (Life Technologies, product #15240-062), and Glutamax (Life Technologies, product #35050-061)] at 1,000 (HEK293) or 5,000 (HepG2) cells per well. Cells were allowed to attach and grow overnight, after which compounds are added at various concentrations. Cell viability was assessed 96 hrs after compound addition with CellTiter-Glo reagent (Promega, catalog #G7570) according to manufacturer's protocol and measurement on a Pherastar luminescence plate reader (BMG Labtech).
To determine the effect of WFS1 depletion on compound mediated inhibition of cell viability, parental HepG2 cells and HepG2 cells where WFS1 was deleted by CRISPR/Cas9 were exposed to increasing concentrations of either Compound 136 or Compound 253 for 96 hours after which time viability was determined using Cell Titer Glo reagent (Promega). […] The IC50s for the viability of both the HepG2 parental and WFS1 knockout cells are summarized in Table 47: A<0.5 μM; 0.5 μM≤<2.0 μM; 2.0 μM≤C<10.0 μM; D≥[…].
A general note: ATP-based viability assays read luminescence as a measure of living cells.

The subject of assay [1] is non-small cell lung cancer (NSCLC) adenocarcinoma line D33966. The experiment in a line: In vivo efficacy, NSCLC patient derived xenograft OD33966. The arrangement: species or system nu/nu mice. The conditions noted are these: NSCLC PDX OD33966, oral. On the procedure:
Female immune deficient mice (Charles River, 4-6 wks age) were anesthetized with Ketamine-Xylazine (140 mg/kg-14 mg/kg ip) and shaved. Puralube eye ointment was applied to the eyes to prevent desiccation of the corneas. Betadine and 70% ethanol was applied to the shaved location to sterilize the skin at the location of the incision. The animals were placed in a biosafety cabinet for the duration of the surgery. Using scissors, an 8 to 10 mm incision was made in the lateral flank of the skin. A tumor fragment weighing between 50 and 150 mg was placed under the skin at the incision site using forceps, and staples were used to close the incision. The staples were removed 5 to 7 days after surgery. Starting approximately two weeks after implantation, animals were weighed, and tumors were measured using caliper twice weekly. Tumor volume was calculated using the formula: volume=length×width^2×0.52.
Compound administration began when xenografts reached approximately 100-300 mm3 and continued until control xenografts reached […] of the animal's body weight. Test compounds were administered orally by gastric gavage. Percent tumor growth inhibition (TG) was calculated on the indicated treatment day. Percent TGI is defined as: [1−(del T/del C)]×100%, where del T is the final minus initial average volumes of the treated group, and del C is the final minus initial average volumes of the control group. […] The tested compounds were administered orally. Vehicle control consisted of either 0.5% methylcellulose/0.1% sodium lauryl sulfate or 20% captisol. Tumor volumes were determined by caliper measurement twice a week.

Setting [2] is: Homo sapiens, HepG2 WFS1 knockout, read-out: HepG2 WFS1 KO viability.
The mark [3] stands for this setting: Mus musculus, 336 h, 100 mpk qd, treatment day 14, read-out: % TGI.
Where [4] appears, read: HepG2 WFS1 knockout, read-out: HepG2 WFS1 KO viability.
Setting [5] is: Mus musculus, 288 h, 100 mpk qd, treatment day 12, read-out: % TGI.

Plk1, sequence (P53350 whole entry, species assumed): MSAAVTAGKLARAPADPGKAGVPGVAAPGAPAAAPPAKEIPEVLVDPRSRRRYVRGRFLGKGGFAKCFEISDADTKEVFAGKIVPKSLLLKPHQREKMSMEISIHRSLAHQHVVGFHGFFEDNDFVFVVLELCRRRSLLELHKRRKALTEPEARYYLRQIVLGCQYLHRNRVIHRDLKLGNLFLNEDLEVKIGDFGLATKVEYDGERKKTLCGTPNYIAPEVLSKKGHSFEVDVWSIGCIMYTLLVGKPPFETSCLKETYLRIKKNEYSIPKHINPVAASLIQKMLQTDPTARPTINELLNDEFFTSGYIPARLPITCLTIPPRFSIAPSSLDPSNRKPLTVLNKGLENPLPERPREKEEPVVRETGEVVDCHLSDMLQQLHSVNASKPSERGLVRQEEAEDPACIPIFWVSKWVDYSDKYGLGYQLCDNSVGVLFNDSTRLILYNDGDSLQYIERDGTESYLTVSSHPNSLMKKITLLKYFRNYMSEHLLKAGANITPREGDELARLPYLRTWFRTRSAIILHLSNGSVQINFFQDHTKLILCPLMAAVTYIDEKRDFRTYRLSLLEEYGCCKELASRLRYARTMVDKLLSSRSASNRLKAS

Take `Cc1nc(NCc2cnn(Cc3ccc(F)cc3)c2)nc2c1N(C)C(=O)[C@H](C)N2C` [Compound 1, (7S)-2-(((1-(4-fluorobenzyl)-1H-pyrazol-4-yl)methyl)amino)-4,5,7,8-tetramethyl-7,8-dihydropteridin-6(5H)-one]: the Ki at Plk1 was over 4 µM. In the assay on HepG2 WFS1 KO (setting [2]), the IC50 is at least 10 µM. In addition, in assay [1] (Mus musculus, 456 h, 200 mpk bid, treatment day 19, read-out: % TGI), the inhibition in vivo at 200 mg/kg worked out at 94.5%.

As for `Cc1nc(NCc2cnn(CCc3ccc(F)cc3)c2)nc2c1NC(=O)[C@H](C)N2C` [Compound 6, (7S)-2-(((1-(4-fluorophenethyl)-1H-pyrazol-4-yl)methyl)amino)-4,7,8-trimethyl-7,8-dihydropteridin-6(5H)-one], the Ki on Plk1 was over 4 µM. Also, the IC50 in the assay on HepG2 WFS1 KO (setting [2]) was at least 10 µM.

Regarding `Cc1nc(NCc2cnn(CC3CCC3)c2)nc2c1N(C)C(=O)[C@H](C)N2C` [Compound 7, (7S)-2-(((1-(cyclobutylmethyl)-1H-pyrazol-4-yl)methyl)amino)-4,5,7,8-tetramethyl-7,8-dihydropteridin-6(5H)-one], the Ki on Plk1 is over 4 µM. The IC50 in the assay with HepG2 WFS1 KO (setting [2]) is at least 10 µM.

Regarding `Cc1nc(NCc2cnn(CCc3ccc(F)cc3)c2)nc2c1N(C)C(=O)[C@H](C)N2C` [Compound 8, (7S)-2-(((1-(4-fluorophenethyl)-1H-pyrazol-4-yl)methyl)amino)-4,5,7,8-tetramethyl-7,8-dihydropteridin-6(5H)-one], the Ki at Plk1 was over 4 µM. The IC50 with HepG2 WFS1 KO (setting [2]) is at least 10 µM.

For `CC[C@H]1C(=O)Nc2cnc(NCc3cnn(Cc4ccc(F)cc4)c3)nc2N1C` [Compound 9, (7S)-7-ethyl-2-(((1-(4-fluorobenzyl)-1H-pyrazol-4-yl)methyl)amino)-8-methyl-7,8-dihydropteridin-6(5H)-one], on Plk1, the Ki is over 4 µM. Also, in the assay with HepG2 WFS1 KO (setting [2]), the IC50 was at least 10 µM.

Take `COc1c(F)cc(Cn2cc(CNc3nc(C)c4c(n3)N(C)[C@@H](C)C(=O)N4)cn2)cc1F` [Compound 46, (7S)-2-(((1-(3,5-difluoro-4-methoxybenzyl)-1H-pyrazol-4-yl)methyl)amino)-4,7,8-trimethyl-7,8-dihydropteridin-6(5H)-one]: on Plk1, the Ki is over 4 µM. The inhibition in vivo at 100 mg/kg in assay [1] (setting [3]) was found to be 93.3%.

For the compound `Cc1nc(NCc2cnn(Cc3ccc(F)nc3)c2)nc2c1NC(=O)[C@H](C)N2C` [Compound 77], the inhibition in vivo at 100 mg/kg in assay [1] (setting [3]) worked out at 98.5%.

For the compound `COc1cc(F)ccc1Cn1cc(CNc2nc(C)c3c(n2)N(C)[C@@H](C)C(=O)N3)cn1` [Compound 83, (7S)-2-(((1-(4-fluoro-2-methoxybenzyl)-1H-pyrazol-4-yl)methyl)amino)-4,7,8-trimethyl-7,8-dihydropteridin-6(5H)-one], in assay [1] (setting [3]), the inhibition in vivo at 100 mg/kg was 97.2%.

Regarding `Cc1cc(F)ncc1Cn1cc(CNc2nc(C)c3c(n2)N(C)[C@@H](C)C(=O)N3)cn1` [Compound 94, (7S)-2-(((1-((6-fluoro-4-methylpyridin-3-yl)methyl)-1H-pyrazol-4-yl)methyl)amino)-4,7,8-trimethyl-7,8-dihydropteridin-6(5H)-one], the inhibition in vivo at 100 mg/kg in assay [1] (setting [3]) was 94.5%.

As for `Cc1nc(NCc2cnn(Cc3ccc(C(F)(F)F)nc3)c2)nc2c1NC(=O)[C@H](C)N2C` [Compound 136, (7S)-4,7,8-trimethyl-2-(((1-((6-(trifluoromethyl)pyridin-3-yl)methyl)-111-pyrazol-4-yl)methyl)amino)-7,8-dihydropteridin-6(5H)-one], the Ki on Plk1 is over 4 µM. Further, the IC50 with HepG2 WFS1 KO (setting [4]) is at least 10 µM; with HepG2 WFS1 KO (cell viability, HepG2 WFS1 KO, Cell Titer Glo, read-out: IC50) it was over 27 µM; with HepG2 WFS1 KO (cell viability, HepG2 WFS1 KO, read-out: IC50 class) it was at least 10 µM. Moreover, the “shift in IC50 on depletion of WFS1 from HepG2 cells” value in the assay on HepG2 WFS1 KO (cell viability, WFS1 KO vs parental HepG2, 96 hours) was “greater than 100 fold”. For the same compound, the “% TGI” value in assay [1] (100 mpk qd, treatment day 14) is reported as 106.65%.

`Cc1nc(N[C@H]2C[C@H](Oc3cc(F)c(F)c(F)c3)C2)nc2c1NC(=O)[C@H](C)N2C` [Compound 246, (7S)-4,7,8-trimethyl-2-((trans-3-(3,4,5-trifluorophenoxy)cyclobutyl)amino)-7,8-dihydropteridin-6(5H)-one]: the Ki on Plk1 is over 4 µM. The inhibition in vivo at 100 mg/kg in assay [1] (Mus musculus, 264 h, 100 mpk qd, treatment day 11, read-out: % TGI) turned out to be 82.6%.

Regarding `Cc1nc(N[C@H]2C[C@@H](Oc3cc(F)c(F)c(F)c3)C2)nc2c1NC(=O)[C@H](C)N2C` [Compound 247, (7S)-4,7,8-trimethyl-2-((cis-3-(3,4,5-trifluorophenoxy)cyclobutyl)amino)-7,8-dihydropteridin-6(5H)-one], on Plk1, the Ki was over 4 µM. In addition, the IC50 in the assay with HepG2 WFS1 KO (setting [2]) was at least 10 µM.

With `Cc1nc(N[C@@H]2CC[C@@H](Oc3cc(F)c(F)c(F)c3)C2)nc2c1N(C)C(=O)[C@H](C)N2C` [Compound 272, (S)-4,5,7,8-tetramethyl-2-(((1R,3R)-3-(3,4,5-trifluorophenoxy)cyclopentyl)amino)-7,8-dihydropteridin-6(5H)-one], in assay [1] (setting [3]), the inhibition in vivo at 100 mg/kg was found to be 77.9%.

`Cc1nc(N(C)Cc2cnn(Cc3ccc(C(F)(F)F)nc3)c2)nc2c1NC(=O)[C@H](C)N2C` [Compound 403, (7S)-4,7,8-trimethyl-2-(methyl((1-((6-(trifluoromethyl)pyridin-3-yl)methyl)-1H-pyrazol-4-yl)methyl)amino)-7,8-dihydropteridin-6(5H)-one]: the inhibition in vivo at 100 mg/kg in assay [1] (setting [5]) stood at 103%.

Take `CC(=O)N(Cc1cnn(Cc2ccc(C(F)(F)F)nc2)c1)c1nc(C)c2c(n1)N(C)[C@@H](C)C(=O)N2` [Compound 405, (7S)-N-((1-((6-(trifluoromethyl)pyridin-3-yl)methyl)-1H-pyrazol-4-yl)methyl)-N-(4,7,8-trimethyl-6-oxo-5,6,7,8-tetrahydropteridin-2-yl)acetamide]: the inhibition in vivo at 100 mg/kg in assay [1] (setting [5]) came out at 91%.

As for `CC[C@H]1C(=O)Nc2cnc(NCc3cnn(Cc4ccc(C(F)(F)F)nc4)c3)nc2N1C` [Compound 427, (7S)-7-ethyl-8-methyl-2-(((1-((6-(trifluoromethyl)pyridin-3-yl)methyl)-1H-pyrazol-4-yl)methyl)amino)-7,8-dihydropteridin-6(5H)-one], the IC50 with HepG2 WFS1 KO (setting [2]) is at least 10 µM.

With `Cc1nc(NCc2cn(Cc3ccc(C(F)(F)F)nc3)cn2)nc2c1NC(=O)[C@H](C)N2C` [Compound 428, (S)-4,7,8-trimethyl-2-(((1-((6-(trifluoromethyl)pyridin-3-yl)methyl)-1H-imidazol-4-yl)methyl)amino)-7,8-dihydropteridin-6(5H)-one], the IC50 in the assay with HepG2 WFS1 KO (setting [2]) was at least 10 µM.

“(7S)-2-(((1-((6-fluoro-2-isopropylpyridin-3-yl)methyl)-1H-pyrazol-4-yl)methyl)(methyl)amino)-7-isopropyl-4,8-dimethyl-7,8-dihydropteridin-6(5H)-one [Compound 430]”: the IC50 with HepG2 WFS1 KO (setting [4]) was at least 10 µM.

The record behind these values is patent publication US20230312587A1, “PTERIDINONE COMPOUNDS AND USES THEREOF” (Vertex Pharmaceutical Incorporated, priority 2018, published 2023).
